23 compounds from patent US12570642B2, “GLP-IR modulating compounds” (Gilead Sciences, Inc., priority 2021, dated 2026) can be followed below.

For the experiment, the target named is GLP-1R (Homo sapiens, UniProt P43220). Put plainly: GLP-1R Activation - cAMP Assay. In kind it is cell-based. The conditions noted are these: each compound run on one of the two cAMP assays (Assay 1 or Assay 2, not specified). In short, it runs like this:
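CHO cells stably expressing GLP-1R, plated at 1,000 cells/well overnight, then equilibrated 1 h in HBSS with 20 mM Hepes and 0.1% BSA. Agonist added as 10-point dose response for 30 min at 37 °C. cAMP measured by HTRF (Cisbio Gs Dynamic kit); EC50 from sigmoidal fit.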
Background: Cyclic AMP is a second messenger, typically raised through Gs and lowered through Gi signalling.

Where [1] appears, read: cAMP increase in CHO cells stably expressing GLP-1R.

pEC50: −log10 of the molar value.

Sequence of GLP-1R (P43220 24-463): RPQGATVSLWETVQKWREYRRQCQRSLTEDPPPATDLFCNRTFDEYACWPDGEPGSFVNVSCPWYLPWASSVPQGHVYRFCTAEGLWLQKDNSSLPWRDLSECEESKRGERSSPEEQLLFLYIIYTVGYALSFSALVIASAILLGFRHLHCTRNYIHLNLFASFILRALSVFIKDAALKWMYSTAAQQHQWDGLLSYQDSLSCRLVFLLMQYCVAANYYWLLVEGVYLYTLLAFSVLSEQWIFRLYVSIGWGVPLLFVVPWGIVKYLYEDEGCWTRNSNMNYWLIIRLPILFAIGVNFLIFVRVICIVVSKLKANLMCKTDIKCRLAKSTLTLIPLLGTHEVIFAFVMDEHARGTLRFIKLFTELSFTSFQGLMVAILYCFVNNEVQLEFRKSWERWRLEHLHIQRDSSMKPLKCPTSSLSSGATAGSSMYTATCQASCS

One may read the pEC50 as the EC50 on a negative log10 scale, so that one unit is a factor of ten. On to `O=C(O)c1ccc2nc(Cc3cc(F)c(-c4cccc(OCc5ccc6c(c5)CN(C(=O)C5CC5)C6)n4)cc3F)n(C[C@@H]3CCO3)c2c1` [Example 520, (S)-2-(4-(6-((2-(cyclopropanecarbonyl)isoindolin-5-yl)methoxy)pyridin-2-yl)-2,5-difluorobenzyl)-1-(oxetan-2-ylmethyl)-1H-benzo[d]imidazole-6-carboxylic acid], for which, under setting [1], the negative logarithm of the EC50 (pEC50) was 9.57.
The same measure, in the same setting: the result for `Cc1cc(Cc2nc3ccc(C(=O)O)cc3n2[C@@H]2COCC2(C)C)c(Cl)cc1-c1ccc(F)c(OCc2ccc(C#N)cc2F)n1` [Example 140, (S)-2-(2-chloro-4-(6-((4-cyano-2-fluorobenzyl)oxy)-5-fluoropyridin-2-yl)-5-methylbenzyl)-1-(4,4-dimethyltetrahydrofuran-3-yl)-1H-benzo[d]imidazole-6-carboxylic Acid] reads 9.80.
On the same count and under the same terms, then `O=C(O)c1ccc2nc(Cc3cc(F)c(-c4cccc(OCc5cnc(-n6ccnn6)cc5Cl)n4)cc3F)n(CCOC(F)F)c2c1` [Example 560, 2-(4-(6-((4-chloro-6-(1H-1,2,3-triazol-1-yl)pyridin-3-yl)methoxy)pyridin-2-yl)-2,5-difluorobenzyl)-1-(2-(difluoromethoxy)ethyl)-1H-benzo[d]imidazole-6-carboxylic acid], with 9.72.
Still for that read-out and setting: the result for `CC1(C)COC[C@@H]1n1c(Cc2cc(F)c(-c3cccc(OCc4ccc(C#N)cc4F)n3)cc2F)nc2ccc(C(=O)O)cc21` [Example 59] reads 9.49; that for `COC(C)(C)C(C)n1c(Cc2cc(F)c(-c3cccc(OCc4ccc(Cl)cc4F)n3)cc2F)nc2ccc(C(=O)O)cc21` (centres unmarked) [Example 507, 2-(4-(6-((4-chloro-2-fluorobenzyl)oxy)pyridin-2-yl)-2,5-difluorobenzyl)-1-(3-methoxy-3-methylbutan-2-yl)-1H-benzo[d]imidazole-6-carboxylic acid], 9.45; that for `CC1(C)COC[C@H]1n1c(Cn2cc(F)c(-c3ccc(F)c(OCc4ccc(Cl)cc4)n3)cc2=O)nc2ccc(C(=O)O)cc21` [Example 300, (S)-2-((6-((4-chlorobenzyl)oxy)-5,5′-difluoro-2′-oxo-[2,4′-bipyridin]-1′(2′H)-yl)methyl)-1-(4,4-dimethyltetrahydrofuran-3-yl)-1H-benzo[d]imidazole-6-carboxylic acid], 9.57.
As to `CC(=O)N1C[C@@H](n2c(Cc3cc(F)c(-c4cccc(OCc5ccc(C#N)cc5F)n4)cc3F)nc3ccc(C(=O)O)cc32)C2(CC2)C1` [Example 15, (S)-1-(5-acetyl-5-azaspiro[2.4]heptan-7-yl)-2-(4-(6-((4-cyano-2-fluorobenzyl)oxy)pyridin-2-yl)-2,5-difluorobenzyl)-1H-benzo[d]imidazole-6-carboxylic Acid], the pEC50 ([…]) was 7.15.
Turning to `CC1(C)COC[C@H]1n1c(Cc2cc(F)c(-c3cccc(OCc4ccc(C(F)(F)F)nn4)n3)cc2F)nc2ccc(C(=O)O)cc21` [Example 470, (S)-2-(2,5-difluoro-4-(6-((6-(trifluoromethyl)pyridazin-3-yl)methoxy)pyridin-2-yl)benzyl)-1-(4,4-dimethyltetrahydrofuran-3-yl)-1H-benzo[d]imidazole-6-carboxylic acid], the pEC50 under setting [1] is 8.79.
Same read-out and setting: the result for `COCCn1c(Cc2cc(F)c(-c3cccc(OCc4cnc(C)cn4)n3)cc2F)nc2ccc(C(=O)O)cc21` [Example 29, 2-(2,5-difluoro-4-(6-((5-methylpyrazin-2-yl)methoxy)pyridin-2-yl)benzyl)-1-(2-methoxyethyl)-1H-benzo[d]imidazole-6-carboxylic Acid] reads 7.44; that for `N#Cc1ccc(COc2cccc(-c3cc(F)c(Cc4nc5ccc(C(=O)O)cc5n4[C@@H]4COC[C@@H]4OCC(F)F)cc3F)n2)c(F)c1` (racemic) [Example 412, 2-(4-(6-((4-cyano-2-fluorobenzyl)oxy)pyridin-2-yl)-2,5-difluorobenzyl)-1-((3R,4R)-4-(2,2-difluoroethoxy)tetrahydrofuran-3-yl)-1H-benzo[d]imidazole-6-carboxylic acid], 9.34; that for `Cn1cc(-c2ccc(COc3cccc(-c4cc(F)c(Cc5nc6ccc(C(=O)O)cc6n5[C@@H]5COCC5(C)C)cc4F)n3)cn2)nn1` [Example 550, (S)-2-(2,5-difluoro-4-(6-((6-(1-methyl-1H-1,2,3-triazol-4-yl)pyridin-3-yl)methoxy)pyridin-2-yl)benzyl)-1-(4,4-dimethyltetrahydrofuran-3-yl)-1H-benzo[d]imidazole-6-carboxylic acid], 10.18.
Same read-out and setting: the result for `Cc1cc(Cc2nc3c(F)cc(C(=O)O)cc3n2[C@@H]2COCC2(C)C)c(F)cc1-c1cccc(OCc2ccc(C#N)cc2F)n1` [Example 208, (S)-2-(4-(6-((4-cyano-2-fluorobenzyl)oxy)pyridin-2-yl)-2-fluoro-5-methylbenzyl)-1-(4,4-dimethyltetrahydrofuran-3-yl)-4-fluoro-1H-benzo[d]imidazole-6-carboxylic acid] reads 9.60; that for `CC1(C)COCC1n1c(Cc2cc(F)c(-c3cccc(OCc4cnc(-n5ccnn5)cc4Cl)n3)cc2F)nc2c(F)cc(C(=O)O)cc21` (centres unmarked) [Example 173, 2-(4-(6-((4-chloro-6-(1H-1,2,3-triazol-1-yl)pyridin-3-yl)methoxy)pyridin-2-yl)-2,5-difluorobenzyl)-1-(4,4-dimethyltetrahydrofuran-3-yl)-4-fluoro-1H-benzo[d]imidazole-6-carboxylic Acid], 10.74.
Under setting [1], `Cc1cc(F)c(COc2cccc(-c3cc(F)c(Cc4nc5ccc(C(=O)O)cc5n4[C@@H]4COCC4(C)C)cc3F)n2)cc1Cl` [Example 459, (S)-2-(4-(6-((5-chloro-2-fluoro-4-methylbenzyl)oxy)pyridin-2-yl)-2,5-difluorobenzyl)-1-(4,4-dimethyltetrahydrofuran-3-yl)-1H-benzo[d]imidazole-6-carboxylic acid] showed a pEC50 of 9.10.
Same read-out and setting: the result for `CC1(C)COC[C@H]1n1c(Cc2cc(F)c(-c3cccc(OCc4cnc(-n5ccnn5)cc4Cl)n3)cc2F)nc2c(F)cc(C(=O)O)cc21` [Example 171, (S)-2-(4-(6-((4-chloro-6-(1H-1,2,3-triazol-1-yl)pyridin-3-yl)methoxy)pyridin-2-yl)-2,5-difluorobenzyl)-1-(4,4-dimethyltetrahydrofuran-3-yl)-4-fluoro-1H-benzo[d]imidazole-6-carboxylic Acid] reads 10.30; that for `CC1(C)COC[C@H]1n1c(Cc2c(F)cc(-c3ccc(F)c(OCc4ccc(Cl)cc4)n3)c(F)c2F)nc2c(F)cc(C(=O)O)cc21` [Example 310, (S)-2-(4-(6-((4-chlorobenzyl)oxy)-5-fluoropyridin-2-yl)-2,3,6-trifluorobenzyl)-1-(4,4-dimethyltetrahydrofuran-3-yl)-4-fluoro-1H-benzo[d]imidazole-6-carboxylic acid], 10.49; that for `CC1(C)COC[C@H]1n1c(Cc2cc(F)c(-c3cccc(OCc4ccc(C#N)cc4)n3)cc2F)nc2c(F)cc(C(=O)O)cc21` [Example 376, (S)-2-(4-(6-((4-cyanobenzyl)oxy)pyridin-2-yl)-2,5-difluorobenzyl)-1-(4,4-dimethyltetrahydrofuran-3-yl)-4-fluoro-1H-benzo[d]imidazole-6-carboxylic acid], 10.25.
Same read-out and setting: the result for `C[C@H]1COC[C@H]1n1c(Cc2cc(F)c(-c3ccc(F)c(OCc4cc(F)c(C#N)cc4F)n3)cc2F)nc2ccc(C(=O)O)cc21` [Example 481, 2-(4-(6-((4-cyano-2,5-difluorobenzyl)oxy)-5-fluoropyridin-2-yl)-2,5-difluorobenzyl)-1-((3S,4R)-4-methyltetrahydrofuran-3-yl)-1H-benzo[d]imidazole-6-carboxylic acid] reads 9.05.
Still for that read-out and setting: the result for `CC1(C)COC[C@H]1n1c(Cc2cc(F)c(-c3ccc(F)c(OCc4ccc(C#N)cc4F)n3)cc2F)nc2c(Cl)cc(C(=O)O)cc21` [Example 127, (S)-4-chloro-2-(4-(6-((4-cyano-2-fluorobenzyl)oxy)-5-fluoropyridin-2-yl)-2,5-difluorobenzyl)-1-(4,4-dimethyltetrahydrofuran-3-yl)-1H-benzo[d]imidazole-6-carboxylic Acid] reads 9.45.
On to `Cn1cccc(COc2cccc(-c3cc(F)c(Cc4nc5ccc(C(=O)O)cc5n4[C@@H]4COCC4(C)C)cc3F)n2)c1=O` [Example 426, (S)-2-(2,5-difluoro-4-(6-((1-methyl-2-oxo-1,2-dihydropyridin-3-yl)methoxy)pyridin-2-yl)benzyl)-1-(4,4-dimethyltetrahydrofuran-3-yl)-1H-benzo[d]imidazole-6-carboxylic acid], for which the negative-log EC50 (pEC50) under setting [1] is 8.83.
Still for that read-out and setting: then `CC1(C)COCC1n1c(Cc2cc(F)c(-c3cccc(OCc4ncc(Cl)cc4F)n3)cc2F)nc2ccc(C(=O)O)cc21` (centres unmarked) [Example 296, 2-(4-(6-((5-chloro-3-fluoropyridin-2-yl)methoxy)pyridin-2-yl)-2,5-difluorobenzyl)-1-(4,4-dimethyltetrahydrofuran-3-yl)-1H-benzo[d]imidazole-6-carboxylic acid], with 10.18; and `COCCn1c(Cc2cc(F)c(-c3cccc(OCc4ccc(C#N)cc4)n3)cc2F)nc2ccc(C(=O)O)c(F)c21` [Example 375, 2-(4-(6-((4-cyanobenzyl)oxy)pyridin-2-yl)-2,5-difluorobenzyl)-7-fluoro-1-(2-methoxyethyl)-1H-benzo[d]imidazole-6-carboxylic acid], with 9.57; and `CC1(C)COC[C@H]1n1c(Cc2c(F)cc(-c3cccc(OCc4ccc(-n5ccnn5)cc4F)n3)c(F)c2F)nc2c(F)cc(C(=O)O)cc21` [Example 241, (S)-1-(4,4-dimethyltetrahydrofuran-3-yl)-4-fluoro-2-(2,3,6-trifluoro-4-(6-((2-fluoro-4-(1H-1,2,3-triazol-1-yl)benzyl)oxy)pyridin-2-yl)benzyl)-1H-benzo[d]imidazole-6-carboxylic acid], with 10.89.
